From the supplement of paper PMC11451515

Tested on: SEM cells
Experiment: cell viability relative to DMSO control; higher = less cytotoxic
Details: 48 h
Procedure, shortened: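 Library compounds in DMSO were pin-dosed in an 11-point threefold series (47 μM to 0.79 nM) onto leukemia cells in 1536-well plates (5 μl). Plates held 500 cells/well of NOMO1 or SEM or 1000 cells/well of P12-Ichikawa, each adapted for at least four passages in each medium. Luminescence was read with CellTiter-Glo One after 48 h at 37°C. Viability means the per-plate percentage relative to DMSO wells, using cell-free wells as background.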

[1] = HPLM + 10% dialyzed FBS, 0.000781 µM
[2] = HPLM + 10% dialyzed FBS, 0.00234 µM
[3] = HPLM + 10% dialyzed FBS, 0.00702 µM
[4] = HPLM + 10% dialyzed FBS, 0.0211 µM
[5] = HPLM + 10% dialyzed FBS, 0.0632 µM
[6] = HPLM + 10% dialyzed FBS, 0.19 µM
[7] = HPLM + 10% dialyzed FBS, 0.569 µM
[8] = HPLM + 10% dialyzed FBS, 1.71 µM
[9] = HPLM + 10% dialyzed FBS, 5.12 µM
[10] = HPLM + 10% dialyzed FBS, 15.4 µM
[11] = HPLM + 10% dialyzed FBS, 46.1 µM
[12] = RPMI 5 mM glucose + 10% FBS, 0.000781 µM
[13] = RPMI 5 mM glucose + 10% FBS, 0.00234 µM
[14] = RPMI 5 mM glucose + 10% FBS, 0.00702 µM
[15] = RPMI 5 mM glucose + 10% FBS, 0.0211 µM
[16] = RPMI 5 mM glucose + 10% FBS, 0.0632 µM
[17] = RPMI 5 mM glucose + 10% FBS, 0.19 µM
[18] = RPMI 5 mM glucose + 10% FBS, 0.569 µM
[19] = RPMI 5 mM glucose + 10% FBS, 1.71 µM
[20] = RPMI 5 mM glucose + 10% FBS, 5.12 µM
[21] = RPMI 5 mM glucose + 10% FBS, 15.4 µM
[22] = RPMI 5 mM glucose + 10% FBS, 46.1 µM
[23] = RPMI 5 mM glucose + 10% dialyzed FBS, 0.000781 µM
[24] = RPMI 5 mM glucose + 10% dialyzed FBS, 0.00234 µM
[25] = RPMI 5 mM glucose + 10% dialyzed FBS, 0.00702 µM
[26] = RPMI 5 mM glucose + 10% dialyzed FBS, 0.0211 µM
[27] = RPMI 5 mM glucose + 10% dialyzed FBS, 0.0632 µM
[28] = RPMI 5 mM glucose + 10% dialyzed FBS, 0.19 µM
[29] = RPMI 5 mM glucose + 10% dialyzed FBS, 0.569 µM
[30] = RPMI 5 mM glucose + 10% dialyzed FBS, 1.71 µM
[31] = RPMI 5 mM glucose + 10% dialyzed FBS, 5.12 µM
[32] = RPMI 5 mM glucose + 10% dialyzed FBS, 15.4 µM
[33] = RPMI 5 mM glucose + 10% dialyzed FBS, 46.1 µM

| SMILES | cell viability [1] [%] | cell viability [2] [%] | cell viability [3] [%] | cell viability [4] [%] | cell viability [5] [%] | cell viability [6] [%] | cell viability [7] [%] | cell viability [8] [%] | cell viability [9] [%] | cell viability [10] [%] | cell viability [11] [%] | cell viability [12] [%] | cell viability [13] [%] | cell viability [14] [%] | cell viability [15] [%] | cell viability [16] [%] | cell viability [17] [%] | cell viability [18] [%] | cell viability [19] [%] | cell viability [20] [%] | cell viability [21] [%] | cell viability [22] [%] | cell viability [23] [%] | cell viability [24] [%] | cell viability [25] [%] | cell viability [26] [%] | cell viability [27] [%] | cell viability [28] [%] | cell viability [29] [%] | cell viability [30] [%] | cell viability [31] [%] | cell viability [32] [%] | cell viability [33] [%] |
| --- | --- | --- | --- | --- | --- | --- | --- | --- | --- | --- | --- | --- | --- | --- | --- | --- | --- | --- | --- | --- | --- | --- | --- | --- | --- | --- | --- | --- | --- | --- | --- | --- | --- |
| COc1cc(OC2CCN(C)CC2)ccc1Nc1ncc2c(n1)n(C1CCCC1)c(=O)n2C | 63.8 | 87.5 | 78.2 | 69.4 | 77.3 | 99 | 97.3 | 64.7 | 59 | 25.6 | 2.44 | 87.4 | 80.4 | 79.3 | 81.1 | 99 | 90.1 | 83.2 | 67.4 | 76.1 | 20.7 | 2.73 | 74.2 | 88.5 | 71.9 | 75.4 | 78.3 | 96.1 | 84.4 | 55.4 | 67.7 | 26.6 | 2.25 |
| COCC1(CO)C(=O)C2CCN1CC2 (stereo unspecified) | 76.2 | 81.7 | 112 | 93.8 | 96.3 | 104 | 4.05 | 73.6 | 87.1 | 71 | 10.3 | 102 | 105 | 137 | 134 | 137 | 144 | 3.64 | 111 | 99.3 | 77.2 | 5.79 | 70.2 | 85.2 | 118 | 105 | 124 | 116 | 3.95 | 90.6 | 103 | 61.8 | 16.9 |
| CN(C)C1CCN(C(=O)c2ccc(NC(=O)Nc3nc(N4CCOCC4)nc(N4CCOCC4)n3)cc2)CC1 | 83.9 | 92.1 | 81.5 | 67.4 | 61.7 | 49.7 | 41.8 | 31.2 | 30.9 | 23.8 | 19.3 | 87.9 | 78.9 | 94.3 | 75.1 | 65.3 | 48.4 | 39.3 | 27.4 | 25.6 | 17.8 | 11.9 | 78.1 | 85.8 | 79.4 | 70.9 | 57.2 | 52.5 | 41.9 | 33.4 | 32.1 | 22 | 14.6 |
| CCc1ccc(CCOc2ccc(CC3SC(=O)NC3=O)cc2)nc1 (stereo unspecified) | 120 | 115 | 112 | 113 | 124 | 108 | 42.4 | 117 | 122 | 119 | 89.6 | 93.5 | 86.9 | 88.1 | 85.9 | 85.6 | 83.4 | 61 | 94.9 | 87 | 80 | 80.7 | 112 | 115 | 111 | 143 | 129 | 116 | 68.6 | 137 | 122 | 122 | 110 |
| N[S+]([O-])(=O)C1=C(Cl)C=C2\N=C/N[S+]([O-])(=O)C2=C1 | 91.1 | 96.5 | 111 | 99 | 91.2 | 59.6 | 123 | 105 | 114 | 148 | 122 | 101 | 104 | 94.3 | 78.1 | 92.5 | 45.3 | 122 | 119 | 104 | 107 | 123 | 109 | 98.7 | 103 | 80.2 | 101 | 56.3 | 134 | 109 | 109 | 123 | 133 |
| CC(C)c1noc(N2CCC(COc3ccc(-c4ccc([S+](C)(=O)[O-])cc4)nc3)CC2)n1 | 131 | 81.5 | 115 | 122 | 132 | 32.7 | 128 | 84.8 | 16.3 | 122 | 109 | 111 | 73.4 | 140 | 126 | 134 | 23.1 | 120 | 53.1 | 12.9 | 114 | 112 | 111 | 56 | 136 | 138 | 115 | 28.8 | 111 | 60.4 | 10.3 | 100 | 104 |
| O=c1[nH]c(=O)n([C@H]2C[C@H](O)[C@@H](CO)O2)cc1/C=C/Br | 92.7 | 116 | 101 | 120 | 119 | 119 | 114 | 100 | 86.4 | 78.7 | 60.2 | 101 | 121 | 114 | 109 | 123 | 105 | 119 | 117 | 115 | 119 | 120 | 90.8 | 117 | 103 | 98.6 | 106 | 112 | 116 | 116 | 111 | 102 | 82.2 |
| N#CCNC(=O)c1ccc(-c2ccnc(Nc3ccc(N4CCOCC4)cc3)n2)cc1 | – | – | – | – | – | – | – | – | – | – | – | 98.5 | 107 | 122 | 108 | 126 | 116 | 103 | 107 | 87 | 37.9 | 13.1 | 91.3 | 107 | 105 | 115 | 120 | 101 | 91.5 | 88.5 | 65.1 | 37.2 | 21.6 |
| O=C(Nc1cccc(C(F)(F)F)c1)Nc1cc([S+](=O)([O-])NC2CC2)ccc1-c1ccsc1 | 101 | 108 | 117 | 97.1 | 110 | 118 | 109 | 102 | 113 | 106 | 61.9 | – | – | – | – | – | – | – | – | – | – | – | 101 | 107 | 118 | 105 | 107 | 111 | 104 | 83.4 | 94.9 | 101 | 10.3 |
| CCN1CCN(c2ccc(Nc3cc(N(C)C(=O)Nc4c(Cl)c(OC)cc(OC)c4Cl)ncn3)cc2)CC1 | 95 | 63.6 | 102 | 93.3 | 102 | 96.9 | 84.2 | 82.9 | 35.5 | 17 | 5.71 | 90.1 | 104 | 92.3 | 102 | 84.2 | 90.4 | 73.4 | 60.9 | 5.11 | 4.6 | 1.95 | 103 | 84 | 110 | 96 | 118 | 95.6 | 92.8 | 71.6 | 8.12 | 6.53 | 2.21 |
| O=C1c2ccccc2-[n+]2ccc3c([nH]c4ccccc43)c21 | 91 | 89.3 | 102 | 77.2 | 70.7 | 73.6 | 68 | 55.8 | 19.6 | 3.74 | 2.58 | 116 | 109 | 102 | 92.1 | 78.2 | 92.7 | 85.7 | 59.6 | 32.3 | 3.62 | 2.81 | 92.7 | 98 | 91.9 | 80.2 | 87.4 | 84.9 | 65.4 | 58.1 | 32.6 | 3.56 | 2.5 |
